Each structure is given as a SMILES string.

We go through one molecule from ChEMBL document CHEMBL3832047, “DailyMed|setid=077bf6ff-afb8-4cb7-9faa-fbb6fd9f037f | YAZ - drospirenone and ethinyl estradiol|Physicians Total Care, Inc”.

Data set [1] can be described thus: (§1) Evaluation pharmacokinetic parameters for Drosporine following multiple co-administration of Drosporine tablets and 0.02 mg ethinyl estradiol to 23 healthy females. It counts as ADME, organism-based. Also noted: dose 3 mg, route oral. As to conditions: human, in vivo, dosed compound id 30, dosed compound name DROSPIRENONE, gender female, regimen every 24h, study dosing duration 21 days, tissue Serum.

Another data set has as its system Homo sapiens. The data set is described as §1. It counts as ADME, organism-based. Also noted: dose 3 mg, route oral. As to conditions: in vivo, po, dosed compound id 30, dosed compound name DROSPIRENONE, gender female, regimen every 24h, study dosing duration 21 days, tissue Serum.

For the molecule `C[C@]12CCC(=O)C=C1[C@@H]1C[C@@H]1[C@H]1[C@@H]3[C@@H]4C[C@@H]4[C@@]4(CCC(=O)O4)[C@@]3(C)CC[C@@H]12` [DROSPIRENONE], the maximum concentration (Cmax) – broadly, the highest concentration seen after dosing – worked out at 38.4 ng/mL in data set [1] (po, sampling time1 1 day) and 70.3 ng/mL with Homo sapiens (sampling time1 21 day). Further, the Tmax (usually the time from dosing to the highest level) in data set [1] (dose 3 mg, route oral, sampling time1 1 day) is 1 to 2 h. Also, the half-life (usually the time in which the quantity being followed falls by half) in data set [1] (dose 3 mg, route oral, sampling time1 21 day) was 30.8 h. Moreover, the entries for the “AUC(0-24)” value in the data set on Homo sapiens (sampling time1 1 day) and in the data set on Homo sapiens (sampling time1 21 day) were 268 ng·h/mL and 763 ng·h/mL, respectively.
